The text below walks through data of patent US20230218589A1, “COMPOUND FOR PREVENTION OR TREATMENT OF A SKIN CANCER OR SKIN PRECANCER” (UNIQUEST PTY LTD, priority 2020, published 2023).

Where two headings read alike, the source gives them in different places.

One series concerns human T cells. The experiment in a line: Human T cell proliferation assay (PBMCs, anti-CD3, CellTiter-Glo). The class given is cell-based. As for the experimental part: Cyclosporine A 1 mg/mL stock (CsA—Sigma) was dissolved in DMSO, Rapamycin 5 mg/mL stock (LC Labs) was dissolved in ethanol.
Under sterile conditions, a 96 well flat bottom plate with white opaque walls (Perkin Elmer) was coated with 10 μg per well of purified human anti-CD3 antibody (clone OKT-3; Biolegend) in a volume of 50 μL per well in sterile PBS. The plate was covered in parafilm and incubated overnight at 4° C. Just prior to addition of Peripheral Blood Mononuclear Cells (PBMCs), the antibody solution was removed and discarded using a multichannel pipette. Wells were washed by adding 200 μL sterile PBS to each well and incubating for 2 min. PBS wash solution was removed and discarded following incubation. The wash step was repeated once, for a total of two PBS washes.
20 mL of blood from a consenting healthy volunteer was collected into lithium heparin vacuette containers (Greiner Bio-One). Under sterile conditions, blood from each container was pooled into a single tube and mixed thoroughly with 20 mL FACS buffer (2% FBS in 1×PBS). 15 mL Ficoll-Paque (GE Healthcare) was added to two 50 mL Falcon tubes, before 20 mL of whole blood/FACS buffer mixture was carefully and slowly dispensed on top of the Ficoll layer. Tubes were centrifuged at 800 g for 20 min at room temperature with the brake off. After centrifugation, the resulting PBMC layer between the plasma and Ficoll layers was carefully removed and transferred to a new 50 mL Falcon tube. Tubes were topped up to 45 mL with FACS buffer, then centrifuged at 500 g for 15 min. Supernatant was carefully removed without disturbing cell pellet, then PBMCs from both tubes were pooled. 30 mL of pre-warmed complete RPMI media [RPMI 1640 (Gibco), 10% heat inactivated FBS (Gibco), 1× Penicillin/Streptomycin/L-Glutamine (Gibco), 100 μM 2-Mercaptoethanol (Sigma)] was added to PBMCs, before centrifugation at 500 g for 15 min at room temperature. Supernatant was removed carefully without disturbing cell pellet. PBMCs were resuspended in 1 mL complete RPMI media.
PBMCs were counted manually using a haemocytometer and cell concentration was adjusted to 1.5×10^6 cells/mL with complete RPMI media. 50 μL of cell suspension was added to appropriate wells of the 96 well flat bottom plate with white opaque walls pre-coated in human anti-CD3. The final number of cells per well was 7.5×10^4.
Cells were incubated in a humidified incubator at 37° C. with 5% CO2 for 1 hour before Compound 1 (or vehicle only) was diluted in complete RPMI medium and added to the appropriate wells at the concentration required. The final volume in all wells was 100 μL. Cells were incubated for 5 days in a humidified incubator at 37° C. with 5% CO2.
CellTiter-Glo Luminescent Cell Viability Assay (Promega) was performed to determine the level of metabolically active cells per well based on ATP quantification. CellTiter-Glo Buffer and lyophilised CellTiter-Glo Substrate were equilibrated to room temperature. CellTiter-Glo Substrate was reconstituted with 10 mL CellTiter-Glo Buffer and gently vortexed for 1 minute to create the CellTiter-Glo Reagent. The 96 well plate containing PBMCs was equilibrated to room temperature for 30 min. Once at room temperature, 100 μL of CellTiter-Glo Reagent was dispensed using a multichannel pipette into each well containing 100 μL cells and media. The plate was mixed for 2 min at room temperature on an orbital shaker to induce cell lysis. The plate was then incubated for 10 min at room temperature in the dark to stabilize the luminescence signal. Luminescence signal was recorded using a CLARIOstar Plus plate reader (BMG Labtech).
PBMCs were stimulated with human anti-CD3 antibody and T cells were allowed to proliferate at 37° C. with 5% CO2 in a humidified incubator for 5 days. Proliferation/viability was assessed via a CellTiter-Glo Luminescent Cell Viability Assay and luminescence was read using a CLARIOstar Plus plate reader. […]

Series [1] is described as follows: cSCC tumour pharmacokinetics after intra-tumoural injection (LC/MS/MS). The class given is in vivo, mouse. The note with it: for concentration at 1 h / concentration at 6 h / concentration at 18 h: K14-HPV38-E6/E7, mouse, in vivo. The protocol:
Tumour processing: The whole tumour was removed from the mouse. The weight of the tumour was recorded and tumour was placed into an appropriate cryovial on dry ice then transferred to a −80° C. freezer. 3 tumours per time point were assessed.
Calibration standards and quality control samples were prepared by adding 2.5 μL of stock solutions of test compound of different concentrations into 25 μL of naive mouse blood or skin homogenates. Control samples were prepared by spiking 2.5 μL of water or acetonitrile into 25 μL of naïve mouse blood or skin homogenates. Tumour samples were homogenised in 1 mL of PBS then transferred into polypropylene Eppendorf tubes. 100 μL of 0.1 M zinc sulfate was added into the tubes, vortexed for 10 sec, and 250 μL of HPLC-grade acetonitrile containing internal standard (pimecrolimus) was added, vortexed for 2 min, and centrifuged for 3 min at 800×g. 20-40 μL of the supernatant was analysed by LCMS/MS. Instrument: Acquity UPLC, Waters. Column: Acquity BEH C18 100×2.1 mm, 1.7 micron; Mobile phase A: methanol; Mobile phase B: 5 mM ammonium acetate with 0.1% formic acid; Mobile phase gradient details: T=0 min (10% A, 90% B); T=0.01 min (10% A, 90% B); gradient to T=1.5 min (95% A, 5% B); T=3.2 min (95% A, 5% B). Flow rate: 0.3 mL/min, run time: 4.5 min; Ionisation mode: Electrospray ionisation (positive).

As for `C=CC[C@@H]1/C=C(\C)C[C@H](C)C[C@H](OC)[C@H]2O[C@@](O)(C(=O)C(=O)N3CCCC[C@H]3C(=O)O[C@H](/C(C)=C/[C@@H]3CC[C@@H](O)[C@H](OC)C3)[C@H](C)[C@@H](O)CC1=O)[C@H](C)C[C@@H]2OC` [tacrolimus, reference compound], the “T cell proliferation compared to the vehicle control” value in the series on human T cells (0.6 ng/mL tacrolimus, anti-CD3, 5 days) is “inhibited”. In series [1], this compound yielded a concentration at 1 h of 33 ng/g, a concentration at 6 h of 73 ng/g and a concentration at 18 h of 52 ng/g.
On to `CC[C@@H]1/C=C(\C)[C@@H](O)[C@H](C)C[C@H](OC)[C@H]2O[C@@](O)(C(=O)C(=O)N3CCCC[C@H]3C(=O)O[C@H](/C(C)=C/[C@@H]3CC[C@@H](O)[C@H](OC)C3)[C@H](C)[C@@H](O)CC1=O)[C@H](C)C[C@@H]2OC` [Compound 1, 17-Ethyl-1,14,20-trihydroxy-12-[2′-(4″-hydroxy-3″-methoxycyclohexyl)-1′-methylvinyl]-23,25-dimethoxy-13,19,21,27-tetramethyl-11,28-dioxa-4-azatricyclo-[22.3.1.0^4,9]octacos-18-ene-2,3,10,16-tetraone], for which the “rescue of T cell proliferation in the presence of rapamycin” value in the series with human T cells (0.3 μM, 1 μM and 3 μM Compound 1 with 1 ng/mL rapamycin, 5 days) is given as “significantly rescued”. Also, the “rescue of T cell proliferation in the presence of cyclosporine A” value in the series on human T cells (0.3 μM, 1 μM and 3 μM Compound 1 with 50 ng/mL cyclosporine A, 5 days) was “unable to rescue”. Also, the “rescue of T cell proliferation in the presence of tacrolimus” value with human T cells (1 μM and 3 μM Compound 1 with 0.6 ng/mL tacrolimus, 5 days) was “dose dependently and significantly rescued”. Besides, the “T cell proliferation/viability with Compound 1 alone” value in the series with human T cells (no tacrolimus, 5 days) is listed as “did not significantly alter”. In addition, the concentration at 1 h in series [1] (1 h post final dose, SCC tumours, read-out: Average Concentration Compound 1 in tumour) worked out at 165000 ng/g. Further, the concentration at 6 h in series [1] (6 h post final dose, SCC tumours, read-out: Average Concentration Compound 1 in tumour) came out at 148000 ng/g. In addition, the concentration at 18 h in series [1] (18 h post final dose, SCC tumours, read-out: Average Concentration Compound 1 in tumour) was found to be 168000 ng/g. The “average tumour concentration of Compound 1 relative to that of tacrolimus” value in series [1] (over 18 h) was “more than 2000 fold”.
